Reference: patent US4983597A, “Beta-lactams as anticholesterolemic agents” (Merck & Co., Inc., priority 1989, dated 1991)

Biological target: T1, HMG-CoA synthase (Rattus norvegicus, UniProt P17425)
T1 construct: The livers from male Charles River CD rats (225-350 g) were homogenized; from tissue; host or cells: rat liver (male Charles River CD rats), 100,000 x g supernatant, ammonium sulfate and DEAE-52 fraction
T1 sequence (P17425 1-520): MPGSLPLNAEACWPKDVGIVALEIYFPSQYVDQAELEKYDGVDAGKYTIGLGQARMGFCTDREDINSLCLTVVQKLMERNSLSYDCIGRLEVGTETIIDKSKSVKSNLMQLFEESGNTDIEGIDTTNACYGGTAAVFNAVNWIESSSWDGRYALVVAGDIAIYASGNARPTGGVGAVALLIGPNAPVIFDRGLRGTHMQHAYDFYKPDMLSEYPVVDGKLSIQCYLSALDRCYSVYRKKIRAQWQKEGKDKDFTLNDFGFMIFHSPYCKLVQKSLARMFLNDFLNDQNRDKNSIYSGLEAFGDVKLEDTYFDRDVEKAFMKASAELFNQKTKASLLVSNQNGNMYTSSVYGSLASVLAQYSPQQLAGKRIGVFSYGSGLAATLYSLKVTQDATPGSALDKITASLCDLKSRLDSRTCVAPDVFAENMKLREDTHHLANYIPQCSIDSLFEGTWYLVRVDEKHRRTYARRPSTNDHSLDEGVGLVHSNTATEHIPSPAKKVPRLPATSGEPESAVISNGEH
Test: HMG-CoA Synthase Inhibition Assay
Type: biochemical
Conditions: Table I; rat liver enzyme, 1-[14C]-acetyl-CoA incorporation
Procedure: The intrinisic HMG-CoA synthase inhibition activity of the compounds of this invention is measured by the standard in vitro protocol described below:
The livers from male Charles River CD rats (225-350 g) were homogenized in 0.25 M sucrose which was adjusted with phenylmethylsulfonylfluoride (PMSF) and N-p-tosyl-1-lysine chloromethyl ketone (TLCK) so that the final concentration of each was […], respectively. The homogenate was centrifuged at 15,000× g for 20 minutes, the supernatant filtered through a fine nylon screen to remove most of the fat layer and recentrifuged at 100,000× g for 1 hour. This supernatant was removed and 1 M potassium phosphate, dithiothreitol (DTT) and ethylene glycolbis(β-aminoethyl ether)-N,N,N',N'-tetraacetic acid (EGTA) added to give a final concentration of 0.1 M (pH 7.2), 0.5 mM and 0.1 mM, respectively. Solid ammonium sulfate was added to 50% saturation to the protein solution, it was centrifuged at 15,000× g and the supernatant discarded. This precipitated protein could be stored at -70° C. for at least one month with very little loss of activity. The ammonium sulfate precipitate was dissolved in an minimal amount of 0.06 M potassium phosphate buffer (pH 7.2) containing 0.5 mM dithiothreitol and 0.1 mM EGTA (referred to as 0.06 M phosphate buffer) and dialyzed overnight against 2 liters of the same buffer to remove the ammonium sulfate and to inactivate HMG-CoA lyase [Clinkenbeard, et al., J. Biol. Chem. 250, 3108-3116(1975)].
The dialyzed extract was added to a column of DEAE-52 (Whatman) which had been equilibrated with 0.06 M phosphate buffer (10 mg of protein in 1 ml bed volume of the resin). The DEAE-cellulose was eluted with 0.06 M phosphate buffer until the optical density at 280 nm was essentially zero. This fraction contained the β-ketoacetyl-CoA thiolase activity. The HMG-CoA synthase was eluted from the column with 0.1 M phosphate buffer (pH 7.2) containing 0.5 mM DTT and […] EGTA, and was virtually free of all thiolase activity. The protein was precipitated by the addition of ammonium sulfate to give 50% saturation. This solution was stirred for 10 minutes at 4° C. and the precipitate collected by centrifugation at 15,000 rpm for 10 minutes. The supernatant was discarded and the precipitate dissolved in a minimum of 0.06 M phosphate buffer, pH 7.2 (about 10 ml) and the enzyme stored at -80° C.
HMG-CoA Synthase Inhibition Assay
Enzyme protein (ca. 24 mg) was added to a solution containing […] Tris-HCl (pH 8.0), 11.7 μM MgCl2, 1.17 μM ethylenediaminetetraacetic acid (EDTA), 0.58 μM dithiothreitol, and the indicated concentrations of the test compound (added as a 2 mg/ml solution in dimethylsulfoxide). The incubation took place in a volume of 0.085 ml at 30° in a shaking water bath. After 5 minutes, […] of a solution containing acetoacetyl-CoA and 0.1 μCi of 1-[^14 C]-acetyl-CoA was added to give a final concentrations of 0.1 and 0.4 μM, respectively. The incubation was continued for 10 more minutes and the reaction stopped by the addition of […] of the assay mixture to 0.2 ml of 6N HCl in a glass scintillation vial. The vial was heated for 1 hour at 120° after which time 0.2 ml more of 6N HCl was again added to each vial and the heating continued for another hour. Following this, 1.0 ml of 0.9% saline was added to each vial and finally 10 ml of scintillation liquid. Radioactivity was determined in a Packard Tri-Carb liquid scintillation counter. Percent inhibition is calculated by the formula: [formula]
IC50 values were determined by plotting the log of the concentration of the test compound verses the percentage inhibition and fitting a straight line to the resulting data by using the least squares method.

SMILES | IC50 [nM]
CC[C@@H]1C(=O)N(S(=O)(=O)c2ccc(C)cc2)[C@@H]1COC(=O)c1ccc(OC)cc1 (relative stereo) [Table I cc] | 30
CC[C@@H]1C(=O)N(S(=O)(=O)c2ccc(C)cc2)[C@@H]1COC(=O)c1ccccn1 (relative stereo) [Table I e] | 54
CC[C@@H]1C(=O)N(S(=O)(=O)c2ccc(C)cc2)[C@@H]1COC(=O)c1ccc(NS(C)(=O)=O)cc1 (relative stereo) [Table I nn] | 16
CC[C@@H]1C(=O)N(S(=O)(=O)c2ccc(C)cc2)[C@@H]1COC(=O)c1ccc([N+](=O)[O-])cc1 (relative stereo) [Table I y] | 28
CC[C@@H]1C(=O)N(S(=O)(=O)c2ccc(C)cc2)[C@@H]1COC(=O)c1ccccc1[N+](=O)[O-] (relative stereo) [Table I c] | 23
CC[C@@H]1C(=O)N(S(=O)(=O)c2ccc(C)cc2)[C@@H]1COC(=O)c1cccc(N)c1 (relative stereo) [Table I v] | 45
CC[C@@H]1C(=O)N(S(=O)(=O)c2ccc(C)cc2)[C@@H]1COC(=O)c1cccnc1Oc1ccccc1 (relative stereo) [Table I t] | 33
COc1ccc(C(=O)OC[C@H]2[C@H](CO)C(=O)N2S(=O)(=O)c2ccc(C)cc2)cc1 (relative stereo) [Table I ss] | 150
CC[C@@H]1C(=O)N(S(=O)(=O)c2ccc(C)cc2)[C@@H]1COC(=O)c1csc(OC)n1 (relative stereo) [Table I qq] | 45
CC[C@@H]1C(=O)N(S(=O)(=O)c2ccc(C)cc2)[C@@H]1COC(=O)c1ccncc1 (relative stereo) [Table I d] | 62
CC[C@@H]1C(=O)N(S(=O)(=O)c2ccc(C)cc2)[C@@H]1COC(=O)c1ccco1 [Table I gg] | 11
CC[C@@H]1C(=O)N(S(=O)(=O)c2ccc(C)cc2)[C@@H]1COC(=O)c1cc2ccccc2o1 (relative stereo) [Table I ff] | 33
CC[C@@H]1C(=O)N(S(=O)(=O)c2ccc(C)cc2)[C@@H]1COC(=O)c1ccc(N)cc1 (relative stereo) [Table I kk] | 47
CC[C@@H]1C(=O)N(S(=O)(=O)c2ccc(C)cc2)[C@@H]1COC(=O)c1ccc(C(=O)OC)cc1 (relative stereo) [Table I ii] | 8.5
COc1ccc(C(=O)OC[C@@H]2[C@H](C(C)C)C(=O)N2S(=O)(=O)c2ccc(C)cc2)cc1 (relative stereo) [Table I hh] | 130
CC[C@@H]1C(=O)N(S(=O)(=O)c2ccc(C)cc2)[C@@H]1COC(=O)c1ccnc2ccccc12 (relative stereo) [Table I r] | 25
CC[C@@H]1C(=O)N(S(=O)(=O)c2ccc(C)cc2)[C@@H]1COC(=O)c1ccccc1 (relative stereo) [Table I dd] | 110
CC[C@@H]1C(=O)N(S(=O)(=O)c2ccc(C)cc2)[C@@H]1COC(=O)c1ccccc1NS(C)(=O)=O (relative stereo) [Table I l] | 31
CC[C@@H]1C(=O)N(S(=O)(=O)c2ccc(C)cc2)[C@@H]1COC(=O)c1ccc2ccccc2n1 (relative stereo) [Table I p] | 21
CC[C@H]1C(=O)N(S(=O)(=O)c2ccc(C)cc2)[C@H]1COC(=O)c1ccc(OC)cc1 [Table I j] | 200
CC[C@@H]1C(=O)N(S(=O)(=O)c2ccc(C)cc2)[C@@H]1COC(=O)c1cccnc1 (relative stereo) [Table I bb] | 64
CC[C@@H]1C(=O)N(S(=O)(=O)c2ccc(C)cc2)[C@@H]1COC(=O)c1ccoc1 (relative stereo) [Table I o] | 320
CC[C@@H]1C(=O)N(S(=O)(=O)c2ccc(C)cc2)[C@@H]1COC(=O)c1cc2ccccc2oc1=O (relative stereo) [Table I ee] | 50
CC[C@@H]1C(=O)N(S(=O)(=O)c2ccc(C)cc2)[C@@H]1COC(=O)c1ccco1 (relative stereo) [Table I g] | 7.9
CCCCc1ccc(C(=O)OC[C@@H]2[C@H](CC)C(=O)N2S(=O)(=O)c2ccc(C)cc2)nc1 (relative stereo) [Table I h] | 45

Same assay, conditions: Table II; rat liver enzyme, 1-[14C]-acetyl-CoA incorporation

SMILES | IC50 [nM]
CCCOc1c(Br)cc(/C=C/C(=O)OC[C@@H]2[C@H](CC)C(=O)N2S(=O)(=O)c2ccc(C)cc2)cc1OC (relative stereo) [Table II u] | 90
CC[C@H]1C(=O)N(S(=O)(=O)c2ccc(C)cc2)[C@H]1COC(=O)Nc1ccc(C)cc1 (relative stereo) [Table II v] | 52
CC[C@@H]1C(=O)N(S(=O)(=O)c2ccc(C)cc2)[C@@H]1COC(=O)COc1ccccc1 (relative stereo) [Table II n] | 24
CC[C@@H]1C(=O)N(S(=O)(=O)c2ccc(C)cc2)[C@@H]1COC(=O)Cc1ccco1 (relative stereo) [Table II l] | 2400
CC[C@H]1C(=O)N(S(=O)(=O)c2ccc(C)cc2)[C@H]1COC(=O)/C=C/c1cc(OC)c(OC)c(OC)c1 (relative stereo) [Table II t] | 38
CC[C@@H]1C(=O)N(S(=O)(=O)c2ccc(C)cc2)[C@@H]1COC(=O)Cc1ccccn1 (relative stereo) [Table II p] | 10
CC[C@@H]1C(=O)N(S(=O)(=O)c2ccc(C)cc2)[C@@H]1COC(=O)/C=C/c1ccc(OC)cc1 (relative stereo) [Table II a] | 9.5
CO[C@@H](C(=O)OC[C@@H]1CC(=O)N1S(=O)(=O)c1ccc(C)cc1)c1ccccc1 [Table II f] | 50

Same assay, conditions: Table IV; rat liver enzyme, 1-[14C]-acetyl-CoA incorporation

SMILES | IC50 [nM]
Cc1ccc(S(=O)(=O)N2C(=O)[C@H](CO)[C@H]2C=Cc2ccccc2)cc1 (relative stereo) [Table IV c] | 1100
CC[C@@H]1C(=O)N(S(=O)(=O)c2ccc(C)cc2)[C@@H]1C(C)=Cc1ccccc1 (relative stereo) [Table IV f] | 430
CCC[C@H]1C(=O)N(S(=O)(=O)c2ccc(C)cc2)[C@@H]1C=Cc1ccccc1 (relative stereo) [Table IV a] | 1500
CCC[C@H]1C(=O)N(S(=O)(=O)c2ccc(C)cc2)[C@H]1C=Cc1ccccc1 (relative stereo) [Table IV b] | 2200

Same assay, conditions: Table V; rat liver enzyme, 1-[14C]-acetyl-CoA incorporation

SMILES | IC50 [nM]
CC(=O)OC(c1ccccc1)C(C)C1CC(=O)N1S(=O)(=O)c1ccc(C)cc1 (stereo not drawn) [Table V f] | 490
CCC1C(=O)N(S(=O)(=O)c2ccc(C)cc2)C1C(C)OC(=O)c1ccc(OC)cc1 (stereo not drawn) [Table V c] | 120
CCC1C(=O)N(S(=O)(=O)c2ccc(C)cc2)C1C(C)Cc1ccccc1 (stereo not drawn) [Table V d] | 175

Same assay, conditions: Table VI; rat liver enzyme, 1-[14C]-acetyl-CoA incorporation

SMILES | IC50 [nM]
Cc1ccc(S(=O)(=O)N2C(=O)C(C)(C)C2C2OC2c2ccccc2)cc1 (stereo not drawn) [Table VI d] | 110
Cc1ccc(S(=O)(=O)N2C(=O)C(C)(C)C2C=Cc2ccccc2)cc1 (stereo not drawn) [Table VI c] | 680
